# Values quoted from earlier work in patent publication US7641924B2, “Nutritional composition for controlling blood sugar level” (Meiji Dairies Corporation, priority 2001, dated 2010).
# Tests used:
# [1] = in vivo
# [2] = biological target: isomaltase in the small intestine (Homo sapiens, UniProt P14410)
# isomaltase in the small intestine, sequence (P14410 whole entry): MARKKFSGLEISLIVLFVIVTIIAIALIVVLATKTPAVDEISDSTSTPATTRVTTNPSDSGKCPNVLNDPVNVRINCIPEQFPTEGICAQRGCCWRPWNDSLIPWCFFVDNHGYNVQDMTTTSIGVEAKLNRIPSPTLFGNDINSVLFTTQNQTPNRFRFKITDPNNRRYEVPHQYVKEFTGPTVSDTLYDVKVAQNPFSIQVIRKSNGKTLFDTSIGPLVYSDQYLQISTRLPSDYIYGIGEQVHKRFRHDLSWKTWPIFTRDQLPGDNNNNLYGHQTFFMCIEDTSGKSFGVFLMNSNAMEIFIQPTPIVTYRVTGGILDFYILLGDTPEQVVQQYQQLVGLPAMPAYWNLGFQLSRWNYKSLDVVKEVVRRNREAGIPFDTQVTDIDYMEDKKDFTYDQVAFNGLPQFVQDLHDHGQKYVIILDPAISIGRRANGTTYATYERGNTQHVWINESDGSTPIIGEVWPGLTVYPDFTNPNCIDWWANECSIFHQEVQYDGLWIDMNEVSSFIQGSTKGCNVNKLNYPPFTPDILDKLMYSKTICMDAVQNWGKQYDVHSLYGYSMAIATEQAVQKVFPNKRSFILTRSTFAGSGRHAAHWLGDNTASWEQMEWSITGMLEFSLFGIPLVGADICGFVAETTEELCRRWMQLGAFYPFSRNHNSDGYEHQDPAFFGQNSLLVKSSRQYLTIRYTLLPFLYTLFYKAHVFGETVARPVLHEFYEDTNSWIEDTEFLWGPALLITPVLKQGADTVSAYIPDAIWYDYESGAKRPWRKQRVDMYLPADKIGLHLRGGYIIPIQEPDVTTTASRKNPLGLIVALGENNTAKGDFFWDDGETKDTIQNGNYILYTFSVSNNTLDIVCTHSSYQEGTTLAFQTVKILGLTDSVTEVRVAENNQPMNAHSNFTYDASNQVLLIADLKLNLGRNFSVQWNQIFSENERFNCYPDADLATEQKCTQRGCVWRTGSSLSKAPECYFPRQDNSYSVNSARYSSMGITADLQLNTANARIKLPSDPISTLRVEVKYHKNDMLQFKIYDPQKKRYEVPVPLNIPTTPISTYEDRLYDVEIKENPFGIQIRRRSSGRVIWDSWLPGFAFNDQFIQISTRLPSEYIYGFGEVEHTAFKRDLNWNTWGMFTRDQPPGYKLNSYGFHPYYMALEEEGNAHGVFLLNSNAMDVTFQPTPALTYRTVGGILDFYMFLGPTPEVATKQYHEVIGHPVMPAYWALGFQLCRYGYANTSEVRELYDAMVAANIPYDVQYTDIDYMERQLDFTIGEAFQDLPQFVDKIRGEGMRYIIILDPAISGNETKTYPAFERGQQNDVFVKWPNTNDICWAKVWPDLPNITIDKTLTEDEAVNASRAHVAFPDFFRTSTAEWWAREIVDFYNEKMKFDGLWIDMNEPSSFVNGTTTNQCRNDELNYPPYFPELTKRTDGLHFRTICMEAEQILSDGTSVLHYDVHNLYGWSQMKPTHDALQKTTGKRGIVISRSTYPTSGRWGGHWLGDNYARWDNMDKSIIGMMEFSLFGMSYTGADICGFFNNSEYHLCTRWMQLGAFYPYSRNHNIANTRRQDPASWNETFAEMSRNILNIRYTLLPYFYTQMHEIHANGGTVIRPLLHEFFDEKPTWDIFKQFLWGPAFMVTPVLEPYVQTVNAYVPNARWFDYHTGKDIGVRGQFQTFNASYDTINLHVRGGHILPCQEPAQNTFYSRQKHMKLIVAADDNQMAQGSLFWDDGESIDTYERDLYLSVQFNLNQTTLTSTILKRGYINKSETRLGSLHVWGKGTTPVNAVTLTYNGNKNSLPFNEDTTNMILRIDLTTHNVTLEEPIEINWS
hydrolysis rate relative to that of palatinose ([2]; small intestine),Compound,blood glucose level after intake [1],insulin level after intake [1],hydrolysis rate relative to that of sucrose [2]
,"OC[C@H]1O[C@H](OC[C@H]2OC(O)(CO)[C@@H](O)[C@@H]2O)[C@H](O)[C@@H](O)[C@@H]1O (some centres unmarked) [palatinose, Palatinose]",maintained at predetermined levels over many hours,maintained at predetermined levels over many hours,one fifth
about 2 times,Trehalulose,,,one third
